For one series, the system named is LR7 cells. Kind of series: MTS-based cell viability assay in LR7 cells. On the set-up: species or system mouse. Particulars: 50 μM, uninfected LR7 cells. How it is done: LR7, LLC-Mk2 or Vero cells were seeded in 96-well plates and cultured overnight. Next, the medium was changed to a new one supplemented with different concentrations (in triplicate) of analyzed compounds. Following the 2 days (LR7 and Vero) or 4 days (LLC-Mk-2) of incubation, CellTiter 96 AQueous nonradioactive cell proliferation assay (Promega) was performed according to the manufacturer’s instruction. The half-maximal cytotoxic concentration (CC50) was calculated as the concentration of a compound needed to reduce cell viability by 50% using GraphPad Prism software (version 5.01, GraphPad Software, San Diego, CA).

Series [1] deals with murine hepatitis virus strain A59 (MHV). Nature of the series: Reduction of MHV cytopathic effect (CPE) in LR7 cells, MTS/PMS readout. The class given is cell-based. Particulars: 50 μM, MOI 0.01, 24 h. How it is done: LR7 cells were seeded in a 96-well plate and cultured overnight. Next, the cells were infected with MHV at an MOI value of 0.01 in medium without FBS. Following 1 h of incubation, the medium containing the virus was collected and cells were covered with a medium supplemented with different concentrations (in triplicate) of the analyzed compounds or DMSO. 24 h p.i. cells viability was evaluated by CellTiter 96 AQueous nonradioactive cell proliferation assay (Promega) according to the manufacturer’s instruction.
(Damage to the host cells serves as the signal in cytopathic effect assays.)

Series [2] concerns human coronavirus strain NL63 (HCoV-NL63). Nature of the series: HCoV-NL63 N protein expression in LLC-Mk2 cells, Western blot and densitometry. In kind it is cell-based. Particulars: 50 μM, MOI 0.01, 4 days p.i., Western blot/densitometry. On the procedure:
LLC-Mk2 monolayers grown in 24-well plates were infected with HCoV-NL63 at an MOI value of 0.01 for 2 h. Unbound virus was removed, and cells were cultured in medium supplemented with different concentrations of compounds. Four days postinfection, cells were collected and lysed in CellLyticM Cell Lysis Reagent (Sigma). Following the protein separation by SDS-PAGE and transfer to PVDF membranes, proteins were immunoblotted using specific mouse anti-N NL63 Abs (Eurofins, Spain) or rabbit anti-β-catenin Abs (Santa Cruz), followed by antimouse or antirabbit secondary antibodies conjugated with HRP. Proteins were visualized and analyzed by chemiluminescence using the UVITEC Cambridge Alliance MINI HD detection system. The densitometric analysis of cells treated with 50 μM dose of a panel of glycoconjugates was performed based on three biological replicates of N and β-catenin immunoblots. The N protein levels were expressed as a percentage relative to DMSO-treated infected cells, while β-catenin levels were expressed as a percentage relative to noninfected control cells. The data were presented as the ratio of N/β-catenin for each sample, normalized accordingly.
(Immunoblotting shows a protein as a band on a membrane.)

Entries after “also recorded” stand apart in the source; their conditions may differ.

Take `CC(=O)OC[C@H]1O[C@@H](OCc2cn(C[C@H]3O[C@@H](n4ccc(=O)[nH]c4=O)[C@H](O[Si](C)(C)C(C)(C)C)[C@@H]3O[Si](C)(C)C(C)(C)C)nn2)[C@H](OC(C)=O)[C@@H](OC(C)=O)[C@@H]1OC(C)=O` [Compound 14, 2′,3′-di-O-tert-Butyldimethylsilyl-5′-deoxy-5′-[4-(2″,3″,4″,6″-tetra-O-acetyl-β-D-glucopyranosyloxymethyl)-1,2-3-triazol-1-yl]-uridine]: in the series on LR7 cells, the “reduction of cell viability (cytotoxicity in uninfected cells)” value (“reduction of cell viability” below) is 10–30%. For the same compound, in series [1], the “protection against MHV-induced CPE” value was “significantly reduced cell death”. Also, in series [2], the “HCoV-NL63 N protein level” value was “significantly reduced; also recorded: weaker activity against HCoV-NL63”.
Consider `CC(=O)OC[C@H]1O[C@@H](OCCn2cc(CNC(=O)[C@H]3O[C@@H](n4ccc(=O)[nH]c4=O)[C@H](O[Si](C)(C)C(C)(C)C)[C@@H]3O[Si](C)(C)C(C)(C)C)nn2)[C@H](OC(C)=O)[C@@H](OC(C)=O)[C@@H]1OC(C)=O` [Compound 16, N-Uracil [(1-(2″,3″,4″,6″-tetra-O-Acetyl-β-D-glucopyranosyloxyethyl)-1,2-3-triazol-4-yl)-methyl]-1′-deoxy-2′,3′-di-O-tert-butyldimethylsilyl-β-D-ribofuranuronamide], for which the “reduction of cell viability” value with LR7 cells is 10–30%. In series [2], the “HCoV-NL63 N protein level” value is “No significant reduction”.
The corresponding values for `CC(=O)OC[C@H]1O[C@@H](OCCn2cc(CNC(=O)[C@H]3O[C@@H](n4ccc(=O)[nH]c4=O)[C@H](O[Si](C)(C)C(C)(C)C)[C@@H]3O[Si](C)(C)C(C)(C)C)nn2)[C@H](OC(C)=O)[C@@H](OC(C)=O)[C@H]1OC(C)=O` [Compound 17, N-Uracil [(1-(2″, 3″, 4″, 6″-tetra-O-Acetyl-β-D-galactopyranosyloxyethyl)-1,2-3-triazol-4-yl)-methyl]-1′-deoxy-2′,3′-di-O-tert-butyldimethylsilyl-β-D-ribofuranuronamide] are 10–30% and “No significant reduction”.
With `CC(=O)OC[C@H]1O[C@@H](NC(=O)Cn2cc(CNC(=O)[C@H]3O[C@@H](n4ccc(=O)[nH]c4=O)[C@H](O[Si](C)(C)C(C)(C)C)[C@@H]3O[Si](C)(C)C(C)(C)C)nn2)[C@H](OC(C)=O)[C@@H](OC(C)=O)[C@@H]1OC(C)=O` [Compound 18, N-Uracil [((1-(2-oxo-(2″,3″,4″,6″-tetra-O-Acetyl-β-D-glucopyranosyl)-amino)-ethyl)-1,2-3-triazol-4-yl)-methyl]-1′-deoxy-2′,3′-di-O-tert-butyldimethylsilyl-β-D-ribofuranuronamide], the “reduction of cell viability” value in the series on LR7 cells is 10–30%. Also, the “protection against MHV-induced CPE” value in series [1] is given as “limited anti-MHV activity”. In series [2], the “HCoV-NL63 N protein level” value was “No significant reduction”.
As for `CC(=O)OC[C@H]1O[C@@H](SCn2cc(CNC(=O)[C@H]3O[C@@H](n4ccc(=O)[nH]c4=O)[C@H](O[Si](C)(C)C(C)(C)C)[C@@H]3O[Si](C)(C)C(C)(C)C)nn2)[C@H](OC(C)=O)[C@@H](OC(C)=O)[C@H]1OC(C)=O` [Compound 23, N-Uracil [(1-(2″,3″,4″,6″-tetra-O-Acetyl-β-D-galactopyranosylthiomethyl)-1,2-3-triazol-4-yl)-methyl]-1′-deoxy-2′,3′-di-O-tert-butyldimethylsilyl-β-D-ribofuranuronamide], the “reduction of cell viability” value in the series on LR7 cells is recorded as 10–30%. Besides, the “HCoV-NL63 N protein level” value in series [2] is “No significant reduction”.
For `CC(=O)OC[C@H]1O[C@@H](SCn2cc(COC[C@H]3O[C@@H](n4ccc(=O)[nH]c4=O)[C@H](O[Si](C)(C)C(C)(C)C)[C@@H]3O[Si](C)(C)C(C)(C)C)nn2)[C@H](OC(C)=O)[C@@H](OC(C)=O)[C@H]1OC(C)=O` [Compound 25, 2′,3′-di-O-tert-Butyldimethylsilyl-5′-O-[(1-(2″,3″,4″,6″-tetra-O-acetyl-β-D-galactopyranosylthiomethyl)-1,2-3-triazol-4-yl)-methyl]-uridine], the “protection against MHV-induced CPE” value in series [1] is “lower activity against MHV”. Moreover, the “HCoV-NL63 N protein level” value in series [2] is reported as “significantly reduced; also recorded: No N protein was detected”.

These data come from PMC12406196, “Anticoronavirus Activity of Uridine Glycoconjugates Containing a 1,2,3-Triazole Moiety” (Journal of Medicinal Chemistry, 2025).
